Consider two molecules from patent EP2669372A1, “HPPD variants and methods of use” (Bayer CropScience AG, priority 2010, dated 2012).

Common to all, as to assay: biochemical
The target of test [1] is T1, Arabidopsis HPPD single point mutant "SEQ ID No. 35" (Arabidopsis thaliana, UniProt P93836, E252S).
T1 construct: encoding mutant HPPD polypeptide, plus containing at the 5' end a nucleic acid encoding an alanine and 6 histidine amino acids; Ala + His6 behind Met1 (N); made in house; host or cells: E. coli BL21 (DE3) (described for the wild type construct)
The source says:
(§1) In this content, pI50-value means the log value of the concentration of inhibitor necessary to inhibit 50% of the enzyme activity in molar concentration.

Test [2] concerns the target T2, Arabidopsis HPPD single point mutant "SEQ ID No. 40" (Arabidopsis thaliana, UniProt P93836, V269A).
T2 construct: encoding mutant HPPD polypeptide, plus containing at the 5' end a nucleic acid encoding an alanine and 6 histidine amino acids; made in house; host or cells: E. coli BL21 (DE3) (described for the wild type construct)
Excerpt: as §1

The target of test [3] is T3, Arabidopsis HPPD single point mutant "SEQ ID No. 42" (Arabidopsis thaliana, UniProt P93836, P280A).
T3 construct: encoding mutant HPPD polypeptide, plus containing at the 5' end a nucleic acid encoding an alanine and 6 histidine amino acids; made in house; host or cells: E. coli BL21 (DE3) (described for the wild type construct)
Excerpt: as §1

For test [4], the target named is T4, Arabidopsis HPPD single point mutant "SEQ ID No. 44" (Arabidopsis thaliana, UniProt P93836, L368M).
T4 construct: encoding mutant HPPD polypeptide, plus containing at the 5' end a nucleic acid encoding an alanine and 6 histidine amino acids; made in house; host or cells: E. coli BL21 (DE3) (described for the wild type construct)
Excerpt: as §1

Test [5] addresses T5, Arabidopsis HPPD single point mutant "SEQ ID No. 46" (Arabidopsis thaliana, UniProt P93836, K421I).
T5 construct: encoding mutant HPPD polypeptide, plus containing at the 5' end a nucleic acid encoding an alanine and 6 histidine amino acids; made in house; host or cells: E. coli BL21 (DE3) (described for the wild type construct)
Excerpt: as §1

Test [6] has as its target T6, Arabidopsis HPPD single point mutant "SEQ ID No. 48" (Arabidopsis thaliana, UniProt P93836, K421Q).
T6 construct: encoding mutant HPPD polypeptide, plus containing at the 5' end a nucleic acid encoding an alanine and 6 histidine amino acids; made in house; host or cells: E. coli BL21 (DE3) (described for the wild type construct)
Excerpt: as §1

Test [7] concerns the target T7, Arabidopsis HPPD single point mutant "SEQ ID No. 50" (Arabidopsis thaliana, UniProt P93836, K421V).
T7 construct: encoding mutant HPPD polypeptide, plus containing at the 5' end a nucleic acid encoding an alanine and 6 histidine amino acids; made in house; host or cells: E. coli BL21 (DE3) (described for the wild type construct)
Excerpt: as §1

The structures appear in SMILES notation. Where two headings read alike, the source gives them in different places.

T5 sequence (P93836 whole entry K421I): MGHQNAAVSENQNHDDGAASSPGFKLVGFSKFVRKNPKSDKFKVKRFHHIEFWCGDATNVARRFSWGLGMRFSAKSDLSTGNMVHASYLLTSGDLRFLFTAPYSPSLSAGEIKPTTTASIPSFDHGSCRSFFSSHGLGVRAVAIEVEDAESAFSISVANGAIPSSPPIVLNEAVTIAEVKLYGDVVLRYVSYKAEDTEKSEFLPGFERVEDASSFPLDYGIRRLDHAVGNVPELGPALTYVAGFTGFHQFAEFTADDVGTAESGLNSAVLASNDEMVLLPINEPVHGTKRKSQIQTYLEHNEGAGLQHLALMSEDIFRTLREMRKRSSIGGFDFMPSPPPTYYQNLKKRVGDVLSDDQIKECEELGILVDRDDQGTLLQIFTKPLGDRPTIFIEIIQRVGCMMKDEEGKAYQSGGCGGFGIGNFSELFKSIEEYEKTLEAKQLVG
T3 sequence (P93836 whole entry P280A): as the sequence (P93836 whole entry K421I) above, with P280A, I421K counted along it
T7 sequence (P93836 whole entry K421V): as the sequence (P93836 whole entry K421I) above, with I421V counted along it
T4 sequence (P93836 whole entry L368M): as the sequence (P93836 whole entry K421I) above, with L368M, I421K counted along it
T6 sequence (P93836 whole entry K421Q): as the sequence (P93836 whole entry K421I) above, with I421Q counted along it
T1 sequence (P93836 whole entry E252S): as the sequence (P93836 whole entry K421I) above, with E252S, I421K counted along it
T2 sequence (P93836 whole entry V269A): as the sequence (P93836 whole entry K421I) above, with V269A, I421K counted along it

For the molecule `Cc1nn(C)c(O)c1C(=O)c1ccc(C(F)(F)F)cc1S(C)(=O)=O` [Pyrasulfotole], the IC50 in test [1] was 50.1 µM; in test [2], 39.8 µM; in test [3] it was 39.8 µM; in test [4] (read-out: pI50 (converted)) it was 10 µM; in test [5], 50.1 µM; in test [6] it was 15.8 µM. This molecule also gave an IC50 in test [7] of 39.8 µM.

With `Cc1ccc(S(=O)(=O)Oc2c(C(=O)c3ccc(Cl)cc3Cl)c(C)nn2C)cc1` [Pyrazolat], the IC50 in test [1] was 20 µM; in test [2], 39.8 µM; in test [3], 20 µM; in test [4], 12.6 µM; in test [5], 31.6 µM; in test [6], 10 µM. Besides, the IC50 in test [7] was 31.6 µM.
